Values belong to the molecule of their own block, whether it stands above or below them.
Assay: Pharmacokinetics in rats, intravenous or intraduodenal administration
Type: in vivo
Conditions: rat
Procedure: Metabolic characteristics of the dipeptide compounds of the present invention was evaluated using rats. Tested compounds dissolved in vehicle was administered intraduodenally or intravenously. After administration, blood was taken and the concentration of residual tested compound in plasma was analyzed. The dosage of the tested compound was described in table 3.

Structure (SMILES): Cc1c(O)cccc1C(=O)N[C@@H](Cc1ccccc1)[C@H](O)C(=O)N1CSC(C)(C)[C@H]1C(=O)NC(C)(C)C [Compound of example 22, (R)-N-tert-butyl-3-[(2S,3S)-2-hydroxy-3-[3-hydroxy-2-methylbenzoyl]amino-4-phenylbutanoyl]-5,5-dimethyl-1,3-thiazolidine-4-carboxamide]
- AUC (i.d., 20.0 mg/kg): 106 µg/mL/min
- F (bioavailability on intraduodenal administration) (i.d., 20.0 mg/kg): 47.53%
- AUC (i.v., 10.0 mg/kg): 111 µg/mL/min
- MRT (i.v., 10.0 mg/kg): 22.9 min
- t1/2 (λ) (i.v., 10.0 mg/kg): 23.89 min

Structure (SMILES): CCc1c(O)cccc1C(=O)N[C@@H](Cc1ccccc1)[C@H](O)C(=O)N1CSC(C)(C)[C@H]1C(=O)NC(C)(C)C [Compound of example 36, (R)-N-tert-butyl-3-[(2S,3S)-3-(2-ethyl-3-hydroxybenzoyl)amino-2-hydroxy-4-phenylbutanoyl]-5,5-dimethyl-1,3-thiazolidine-4-carboxamide]
- AUC (i.d., 10.0 mg/kg): 64 µg/mL/min
- F (bioavailability on intraduodenal administration) (i.d., 10.0 mg/kg): 37.01%
- AUC (i.v., 10.0 mg/kg): 174 µg/mL/min
- MRT (i.v., 10.0 mg/kg): 88.9 min
- t1/2 (λ) (i.v., 10.0 mg/kg): 83.90 min

Structure (SMILES): CSC[C@H](NC(=O)COc1cccc2cnccc12)C(=O)N[C@@H](Cc1ccccc1)[C@H](O)C(=O)N1CSC[C@H]1C(=O)NC(C)(C)C [KNI-272, (R)-3-[(2S,3S)-3-(N-(isoquinoline-5-yloxy)acetylmethylthio-L-alanyl)amino-2-hydroxy-4-phenylbutanoyl]1,3-thiazolidine-4-N'-t-butylcarboxamide, reference compound]
- AUC (i.d., 10.0 mg/kg): 98 µg/mL/min
- F (bioavailability on intraduodenal administration) (i.d., 10.0 mg/kg): 43.20%
- AUC (i.v., 10.0 mg/kg): 224 µg/mL/min
- MRT (i.v., 10.0 mg/kg): 23.2 min
- t1/2 (λ) (i.v., 10.0 mg/kg): 25.57 min

The remaining lines, values ahead:

- AUC (i.d., 20.0 mg/kg): 101 µg/mL/min
- F (bioavailability on intraduodenal administration) (i.d., 20.0 mg/kg): 45.41%
- AUC (i.v., 10.0 mg/kg): 111 µg/mL/min
- MRT (i.v., 10.0 mg/kg): 31.7 min
- t1/2 (λ) (i.v., 10.0 mg/kg): 35.98 min
Structure (SMILES): Cc1c(O)cccc1C(=O)N[C@@H](Cc1ccccc1)[C@H](O)C(=O)N1CSC[C@H]1C(=O)NC(C)(C)C [Compound of example 21, (R)-N-tert-butyl-3-[(2S,3S)-2-hydroxy-3-[3-hydroxy-2-methylbenzoyl]amino-4-phenylbutanoyl]-1,3-thiazolidine-4-carboxamide]

- AUC (i.d., 10.0 mg/kg): 99 µg/mL/min
- F (bioavailability on intraduodenal administration) (i.d., 10.0 mg/kg): 36.24%
- AUC (i.v., 10.0 mg/kg): 276 µg/mL/min
- MRT (i.v., 10.0 mg/kg): 96.0 min
- t1/2 (λ) (i.v., 10.0 mg/kg): 73.81 min
Structure (SMILES): CCc1c(O)cccc1C(=O)N[C@@H](Cc1ccccc1)[C@H](O)C(=O)N1CSC[C@H]1C(=O)NC(C)(C)C [Compound of example 31, (R)-N-tert-butyl-3-[(2S,3S)-2-hydroxy-3-(2-ethyl-3-hydroxybenzoyl)amino-4-phenylbutanoyl]-1,3-thiazolidine-4-carboxamide]

- AUC (i.d., 10.0 mg/kg): 40 µg/mL/min
- F (bioavailability on intraduodenal administration) (i.d., 10.0 mg/kg): 32.26%
- AUC (i.v., 10.0 mg/kg): 124 µg/mL/min
- MRT (i.v., 10.0 mg/kg): 31.9 min
- t1/2 (λ) (i.v., 10.0 mg/kg): 40.51 min
Structure (SMILES): Cc1ccccc1CNC(=O)[C@@H]1CSCN1C(=O)[C@@H](O)[C@H](Cc1ccccc1)NC(=O)c1cccc(O)c1C [Compound of example 34, (R)-N-(2-methylbenzyl)-3-[(2S,3S)-3-(3-hydroxy-2-methylbenzoyl)amino-2-hydroxy-4-phenylbutanoyl]-1,3-thiazolidine-4-carboxamide]

- AUC (i.d., 10.0 mg/kg): 55 µg/mL/min
- F (bioavailability on intraduodenal administration) (i.d., 10.0 mg/kg): 41.55%
- AUC (i.v., 10.0 mg/kg): 131 µg/mL/min
- MRT (i.v., 10.0 mg/kg): 74.7 min
- t1/2 (λ) (i.v., 10.0 mg/kg): 92.63 min
Structure (SMILES): Cc1ccccc1CNC(=O)[C@H]1N(C(=O)[C@@H](O)[C@H](Cc2ccccc2)NC(=O)c2cccc(O)c2C)CSC1(C)C [Compound of example 37, (R)-N-(2-methylbenzyl)-3-[(2S,3S)-3-(3-hydroxy-2-methylbenzoyl)amino-2-hydroxy-4-phenylbutanoyl]-5,5-dimethyl-1,3-thiazolidine-4-carboxamide]
